Test results taken from patent publication US20010029347A1, “Transdermal administrating device” (POLYTRONICS, LTD., priority 2000, published 2001).

Assays:
[1] = parameters: species or system HWY hairless rats; conditions: HWY hairless, rat, in vivo
Protocol: Transdermal administrating devices were attached on the back of each body of HWY hairless rats. A number of the rats were three a group. The concentration of L-ascorbic acid in blood was chemically detected to control the drug concentration in the blood [M^−]. The procedure thereof is described hereunder.
First, a calibration line was prepared. The EB was set at 1.5 V and the transdermal administrating device was attached on the back of each of the test rats.
In addition, blood examination for the rats was performed at those times. From the blood examination, the concentration of ascorbic acid in blood [M^−] was determined.
Next, using the calibration line shown in FIG. 5, the concentration of ascorbic acid in blood [M^−] was promptly converged to a constant value.
According to the indication from the CPU 6, the bias DC power supply 7 was operated to set EB=8V.
When the concentration of ascorbic acid in blood [M^−] should be maintained at a constant value, for example, at 5 (arb. unit) in FIG. 5, the Rd0 should be 6.3 kΩ (kilo ohm) based on the calibration line shown in FIG. 5.
In this case, when the Rd was determined, the EB was temporarily changed to 1.5 V and the voltage drop Vi at the external load was measured.
At the measurement after the current flowing time has elapsed for 20 minutes, the Rd was lower than the Rd0. The CPU 6 operated to feed back the bias voltage to reduce the bias voltage EB.

[2] = Concentration of Polyoxomethalate ion in blood of nude mouse during iontophoresis with transdermal administrating device V (Example 5, no bias power supply); format: in vivo
Protocol: When the transdermal administrating device V according to Example 5 was loaded on the back of a nude mouse, the chemical cell formed by the active electrode 22 and the inert electrode 24 generated an electromotive force of about 2.9V.
Removing the variable resistor 31 out of the circuit, the measurement and arithmetic operation for Rd and the measurement of the blood concentration in blood [M^−] were performed to prepare a calibration line representing the relationship between the Rd and the [M^−].
Next, a Rd0 value corresponding to a target concentration [M^−]0 was determined from the calibration line and the variable resistor […] was connected to the circuit.
The concentration of drug was controlled by controlling the value of the variable resistor 31 with measuring the Rd at varying times.

concentration of ascorbic acid in blood [M-], overshoot value [1] | time after the beginning of flowing a current to converge to constant blood concentration [1] | concentration of ascorbic acid in blood [M-], converged constant value ([1]; 1.5 hours) [arb. unit] | time after the beginning of flowing a current from which blood concentration [M-] is kept at the target concentration ([2]; control by variable resistor, no bias DC power supply) | permeability (iontophoresis through skin) ([2]; without bias DC power supply) | Compound
about 6.5 arb. unit | about 1.5 hours | ~5 | – | – | O=C1O[C@H]([C@@H](O)CO)C(O)=C1O [ascorbic acid, L-ascorbic acid]
– | – | – | about 2 hours | high permeability | K5[SiVW11O40] [Polyoxomethalate ion]
